Measured values from US8952024B2, “Herbicidal pyrimidone derivatives” (E I du Pont de Nemours and Company, priority 2009, dated 2015).

Assays:
Type in all cases: in vivo
[1] = tested on: barnyardgrass (Echinochloa crus-galli); assay: Test A pre-/postemergence plant response
In short: (§1)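 Visual injury rating on a 0–100 scale (0 = no effect, 100 = complete control) was made versus untreated controls after about ten days in the greenhouse. Compounds, formulated in a non-phytotoxic solvent mix containing surfactant, were sprayed preemergence onto loam/sand soil and postemergence onto one- to two-leaf plants.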

[2] = tested on: corn (Zea mays); assay: Test A pre-/postemergence plant response
In short: as §1

[3] = tested on: giant foxtail (Setaria faberii); assay: Test A pre-/postemergence plant response
In short: as §1

[4] = tested on: large crabgrass (Digitaria sanguinalis); assay: Test A pre-/postemergence plant response
In short: as §1

[5] = tested on: morningglory (Ipomoea spp.); assay: Test A pre-/postemergence plant response
In short: as §1

[6] = tested on: pigweed (Amaranthus retroflexus); assay: Test A pre-/postemergence plant response
In short: as §1

[7] = tested on: velvetleaf (Abutilon theophrasti); assay: Test A pre-/postemergence plant response
In short: as §1

[8] = tested on: wheat (Triticum aestivum); assay: Test A pre-/postemergence plant response
In short: as §1

[9] = tested on: cocklebur (Xanthium strumarium); assay: Test B pre-/postemergence plant response; conditions: for Cocklebur plant response rating (0 to 100 scale): 0 is no effect, 13 to 15 days
In short: (§2)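 Ratings reflect visual comparison with untreated controls 13 to 15 days after application, from 0 (no effect) to 100 (complete control). Application was preemergence to seeded loam/sand soil or postemergence to 1- to 4-leaf plants, with compound in a non-phytotoxic, surfactant-containing solvent.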

[10] = tested on: morningglory (Ipomoea coccinea); assay: Test B pre-/postemergence plant response; conditions: for Morningglory plant response rating (0 to 100 scale): 0 is no effect, 13 to 15 days
In short: as §2

[11] = tested on: soybean (Glycine max); assay: Test B pre-/postemergence plant response; conditions: for Soybean plant response rating (0 to 100 scale): 62 g ai/ha, 0 is no effect, 13 to 15 days
In short: as §2

[12] = tested on: wheat (Triticum aestivum); assay: Test B pre-/postemergence plant response; conditions: for Wheat plant response rating (0 to 100 scale): 0 is no effect, 13 to 15 days
In short: as §2

[13] = Postemergence, 125 g ai/ha, visual injury, 0 to 100 scale (0 no effect, 100 complete control), approx. ten days
[14] = Postemergence, 500 g ai/ha, 0 to 100 scale, 0 = no effect, 100 = complete control, approx. ten days
[15] = Preemergence, 125 g ai/ha, 0 to 100 scale, 0 = no effect, 100 = complete control
[16] = Preemergence, 500 g ai/ha, visual injury, 0 to 100 scale (0 no effect, 100 complete control), approx. ten days
[17] = 16 g ai/ha, Postemergence, 0 to 100 scale
[18] = 31 g ai/ha, postemergence, scale 0 to 100, 0 is no effect, 100 is complete control
[19] = 62 g ai/ha, postemergence, 100 is complete control
[20] = Postemergence, 125 g ai/ha, visual rating after 13 to 15 days, scale 0 (no effect) to 100 (complete control)
[21] = Preemergence, 16 g ai/ha, scale 0 to 100, 0 no effect, 100 complete control
[22] = Preemergence, 31 g ai/ha, scale 0 to 100 (0 no effect, 100 complete control)
[23] = Preemergence, 62 g ai/ha, scale 0 to 100, 0 no effect, 100 complete control
[24] = Preemergence, 125 g ai/ha, scale 0 to 100, 0 no effect, 100 complete control
[25] = postemergence, 100 is complete control
[26] = Postemergence, 250 g ai/ha, scale 0 to 100 (0 no effect, 100 complete control)

O=C1CCCC(O)=C1C(=O)c1cnc(-c2cccc(Br)c2)n(-c2ccccc2)c1=O [Compound 69]
45: Plant response rating, Soybean [11, 17]
10: Plant response rating, Barnyardgrass [1, 15] | Plant response rating, Wheat [8, 14] | Plant response rating, Wheat [8, 16] | Plant response rating, Cocklebur [9, 24] | Plant response rating, Wheat [12, 20]
40: Plant response rating, Corn [2, 14] | Plant response rating, Foxtail, Giant [3, 15]
75: Plant response rating, Morningglory [10, 20]
98: Plant response rating, Soybean [11, 20]
5: Plant response rating, Wheat [12, 18] | Wheat plant response rating (0 to 100 scale) [12, 19]
90: Barnyardgrass plant response rating [1, 13] | Plant response rating, Foxtail, Giant [3, 14] | Plant response rating, Crabgrass, Large [4, 15] | Soybean plant response rating (0 to 100 scale) [11, 25]
50: Plant response rating, Morningglory [5, 16]
20: Corn plant response rating [2, 13] | Plant response rating, Cocklebur [9, 20]
65: Plant response rating, Morningglory [10, 17]
60: Plant response rating, Barnyardgrass [1, 16]
100: Plant response rating, Barnyardgrass [1, 14] | Plant response rating, Crabgrass, Large [4, 14] | Plant response rating, Crabgrass, Large [4, 16] | Morningglory plant response rating [5, 13] | Plant response rating, Morningglory [5, 14] | Pigweed plant response rating [6, 13] | Plant response rating, Pigweed [6, 14] | Plant response rating, Pigweed [6, 15] | Plant response rating, Pigweed [6, 16] | Velvetleaf plant response rating [7, 13] | Plant response rating, Velvetleaf [7, 14] | Plant response rating, Velvetleaf [7, 16]
70: Plant response rating, Foxtail, Giant [3, 16] | Plant response rating, Velvetleaf [7, 15] | Plant response rating, Morningglory [10, 18] | Morningglory plant response rating (0 to 100 scale) [10, 19]
80: Foxtail, Giant plant response rating [3, 13] | Crabgrass, Large plant response rating [4, 13] | Plant response rating, Soybean [11, 18]
0: Plant response rating, Corn [2, 15] | Plant response rating, Corn [2, 16] | Plant response rating, Morningglory [5, 15] | Wheat plant response rating [8, 13] | Plant response rating, Wheat [8, 15] | Plant response rating, Cocklebur [9, 17] | Plant response rating, Cocklebur [9, 18] | Cocklebur plant response rating (0 to 100 scale) [9, 19] | Plant response rating, Cocklebur [9, 21] | Plant response rating, Cocklebur [9, 22] | Plant response rating, Cocklebur [9, 23] | Plant response rating, Morningglory [10, 21] | Plant response rating, Morningglory [10, 22] | Plant response rating, Morningglory [10, 23] | Plant response rating, Morningglory [10, 24] | Plant response rating, Wheat [12, 17] | Plant response rating, Wheat [12, 22] | Plant response rating, Wheat [12, 23] | Plant response rating, Wheat [12, 24]

O=C1CCCC(O)=C1C(=O)c1cnc(-c2ccc(Br)cc2)n(-c2ccccc2)c1=O [Compound 70]
50: Barnyardgrass plant response rating [1, 13] | Foxtail, Giant plant response rating [3, 13] | Crabgrass, Large plant response rating [4, 13]
40: Plant response rating, Crabgrass, Large [4, 15] | Plant response rating, Cocklebur [9, 20] | Plant response rating, Cocklebur [9, 26]
35: Plant response rating, Wheat [12, 20] | Plant response rating, Wheat [12, 26]
0: Plant response rating, Barnyardgrass [1, 15] | Corn plant response rating [2, 13] | Plant response rating, Corn [2, 15] | Plant response rating, Corn [2, 16] | Plant response rating, Morningglory [5, 15] | Wheat plant response rating [8, 13] | Plant response rating, Wheat [8, 14] | Plant response rating, Wheat [8, 15] | Plant response rating, Wheat [8, 16] | Plant response rating, Cocklebur [9, 18] | Cocklebur plant response rating (0 to 100 scale) [9, 19]
80: Plant response rating, Barnyardgrass [1, 14] | Plant response rating, Velvetleaf [7, 16]
70: Plant response rating, Velvetleaf [7, 15]
10: Plant response rating, Barnyardgrass [1, 16] | Plant response rating, Morningglory [5, 16]
95: Plant response rating, Soybean [11, 20]
20: Plant response rating, Corn [2, 14] | Wheat plant response rating (0 to 100 scale) [12, 19]
98: Plant response rating, Morningglory [10, 18] | Plant response rating, Soybean [11, 26]
100: Morningglory plant response rating [5, 13] | Plant response rating, Morningglory [5, 14] | Pigweed plant response rating [6, 13] | Plant response rating, Pigweed [6, 14] | Plant response rating, Pigweed [6, 16] | Velvetleaf plant response rating [7, 13] | Plant response rating, Velvetleaf [7, 14] | Morningglory plant response rating (0 to 100 scale) [10, 19] | Plant response rating, Morningglory [10, 20] | Plant response rating, Morningglory [10, 26]
30: Plant response rating, Foxtail, Giant [3, 15]
5: Plant response rating, Wheat [12, 18]
90: Plant response rating, Foxtail, Giant [3, 14] | Plant response rating, Crabgrass, Large [4, 14] | Plant response rating, Crabgrass, Large [4, 16]
60: Plant response rating, Foxtail, Giant [3, 16] | Plant response rating, Pigweed [6, 15]
75: Plant response rating, Soybean [11, 18] | Soybean plant response rating (0 to 100 scale) [11, 25]

CCCc1ncc(C(=O)C2=C(O)CCCC2=O)c(=O)n1CCC [Compound 72]
60: Plant response rating, Barnyardgrass [1, 16] | Plant response rating, Foxtail, Giant [3, 14]
75: Plant response rating, Cocklebur [9, 18]
100: Plant response rating, Crabgrass, Large [4, 16] | Plant response rating, Pigweed [6, 14] | Velvetleaf plant response rating [7, 13] | Plant response rating, Velvetleaf [7, 14] | Plant response rating, Velvetleaf [7, 16]
90: Plant response rating, Barnyardgrass [1, 14] | Plant response rating, Crabgrass, Large [4, 14] | Morningglory plant response rating [5, 13] | Plant response rating, Morningglory [5, 14] | Plant response rating, Pigweed [6, 16] | Plant response rating, Velvetleaf [7, 15] | Plant response rating, Cocklebur [9, 20] | Plant response rating, Morningglory [10, 20] | Plant response rating, Morningglory [10, 26]
80: Barnyardgrass plant response rating [1, 13] | Crabgrass, Large plant response rating [4, 13] | Pigweed plant response rating [6, 13] | Cocklebur plant response rating (0 to 100 scale) [9, 19] | Plant response rating, Cocklebur ([9]; 250 g ai/ha, Preemergence, 0 to 100 scale) | Plant response rating, Soybean [11, 18] | Soybean plant response rating (0 to 100 scale) [11, 25]
95: Plant response rating, Cocklebur [9, 26] | Plant response rating, Soybean [11, 26]
40: Foxtail, Giant plant response rating [3, 13]
85: Morningglory plant response rating (0 to 100 scale) [10, 19] | Plant response rating, Soybean [11, 20]
20: Plant response rating, Corn [2, 16] | Plant response rating, Morningglory [10, 18]
10: Plant response rating, Barnyardgrass [1, 15] | Plant response rating, Corn [2, 14] | Plant response rating, Cocklebur [9, 22] | Plant response rating, Wheat [12, 20] | Plant response rating, Wheat [12, 26]
5: Wheat plant response rating (0 to 100 scale) [12, 19]
70: Plant response rating, Crabgrass, Large [4, 15] | Plant response rating, Morningglory [5, 16] | Plant response rating, Cocklebur [9, 24]
65: Plant response rating, Morningglory [10, 24]
50: Plant response rating, Pigweed [6, 15] | Plant response rating, Cocklebur [9, 23]
55: Plant response rating, Morningglory [10, 23]
0: Corn plant response rating [2, 13] | Plant response rating, Corn [2, 15] | Plant response rating, Foxtail, Giant [3, 15] | Wheat plant response rating [8, 13] | Plant response rating, Wheat [8, 14] | Plant response rating, Wheat [8, 15] | Plant response rating, Wheat [8, 16] | Plant response rating, Morningglory [10, 22] | Plant response rating, Wheat [12, 18] | Plant response rating, Wheat [12, 22] | Plant response rating, Wheat [12, 23] | Plant response rating, Wheat [12, 24]
30: Plant response rating, Foxtail, Giant [3, 16]
